Experimental data from patent publication US8343696B2, “Colored curable composition, fluorine-containing dipyrromethene compound and tautomer thereof, and fluorine-containing dipyrromethene metal complex and tautomer thereof, and color filter using the same and method for producing the color filter” (FUJIFILM Corporation, priority 2008, dated 2013).

Legend:
Assay type in all cases: physicochemical
[1] = Absorption spectrum in ethyl acetate solution (spectrophotometer UV-2400PC)
Method in brief: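 Compounds dissolved in ethyl acetate and scanned on a UV-2400PC spectrophotometer to obtain λmax and molar absorption coefficient (ε). Absorbance at 450 nm reported after normalizing absorbance at λmax to 1.0.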

[2] = Storage stability of colored resist solution (precipitation after one month at room temperature); set-up: key: A: No precipitation was observed; B: Slight precipitation was observed; C: Precipitation was observed; conditions: negative-working colored resist solution, visual precipitation
Method in brief: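 The resist solution was mixed with dipyrromethene complex dye Ia-12 to give a negative-working UV-curable colored composition. It was stored for one month at room temperature and precipitation was visually graded: A none, B slight, C observed.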

[3] = Transmittance at 450 nm of the color filter; conditions: negative-working colored resist, 1.0 μm film; transmittance at λmax normalized to 2%
[4] = Heat resistance of coating film (color difference ΔEab before and after heating); conditions: 100° C. for 1 hour on hot plate
Method in brief: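 Glass substrate coated with the colored resin composition undercoat was heated on a hot plate at 100 °C for 1 h. Color difference ΔEab before versus after heating measured spectrophotometrically and graded: A <6, B 6–10, C >10.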

[5] = Light-fastness of coating film (color difference ΔEab before and after xenon lamp irradiation); conditions: xenon lamp 20,000 luxes for 10 hours (200,000 lux·h)
Method in brief: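 Coated glass substrate bearing the colored resin film was exposed to a xenon lamp at 20,000 lux for 10 hours (200,000 lux·h); color difference ΔEab before vs after exposure was measured. Graded A (ΔEab <6), B (6–10), C (>10); lower ΔEab means better light-fastness.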

Row | maximum absorption wavelength (λmax) [1] [nm] | molar absorption coefficient (ε) [1] | Abs value at 450 nm when normalized to Abs = 1.0 at λmax [1] | Storage stability [2] | Heat resistance [4] | Light-fastness [5] | Structure (SMILES) | Transmittance at 450 nm [3]
1 | 560 | 106,300 | 0.0107 | A | A (ΔEab value was less than 6) | A (ΔEab value was less than 6) | CC1CC(C(C)(C)C)C(OC(=O)C2=C(c3ccccc3)C3=Cc4c(-c5ccccc5)c(C(=O)OC5C(C(C)(C)C)CC(C)CC5C(C)(C)C)c(NC(=O)c5ccc(F)c(F)c5)[n]4[Zn-]([OH])[N+]3=C2NC(=O)c2ccc(F)c(F)c2)C(C(C)(C)C)C1 (centres unmarked) [IIb-13] | A (Transmittance at 450 nm was 90% or more)
2 | 560 | 66,100 | 0.0186 | B | A (ΔEab value was less than 6) | A (ΔEab value was less than 6) | CC1CC(C(C)(C)C)C(OC(=O)c2c(-c3ccccc3)c3[n](c2NC(=O)c2cccc(F)c2C(=O)O)[Zn-]([OH])[N+]2=C(NC(=O)C(C)Sc4cc(C(=O)O)cc(C(=O)O)c4)C(C#N)=C(c4ccccc4)C2=C3)C(C(C)(C)C)C1 (centres unmarked) [Ib-46] | A (Transmittance at 450 nm was 90% or more)
3 | 560 | 81,400 | 0.0154 | A | A (ΔEab value was less than 6) | A (ΔEab value was less than 6) | Cc1c(C(=O)OC2C(C(C)(C)C)CC(C)CC2C(C)(C)C)c(NC(=O)c2ccccc2C(F)(F)F)[n]2c1C=C1C(c3ccccc3)=C(C#N)C(NC(=O)C(C)Sc3cc(C(=O)O)cc(C(=O)O)c3)=[N+]1[Zn-]2[OH] (centres unmarked) [Ia-12] | A (Transmittance at 450 nm was 90% or more)
4 | 562 | 107,300 | 0.0087 | A | A (ΔEab value was less than 6) | A (ΔEab value was less than 6) | CC1CC(C(C)(C)C)C(OC(=O)C2=C(c3ccccc3)C3=Cc4c(-c5ccccc5)c(C(=O)OC5C(C(C)(C)C)CC(C)CC5C(C)(C)C)c(NC(=O)c5c(F)c(F)c(F)c(F)c5F)[n]4[Zn-]([OH])[N+]3=C2NC(=O)c2c(F)c(F)c(F)c(F)c2F)C(C(C)(C)C)C1 (centres unmarked) [IIb-40] | A (Transmittance at 450 nm was 90% or more)
5 | 560 | 117,400 | 0.01 | A | A (ΔEab value was less than 6) | A (ΔEab value was less than 6) | CC1CC(C(C)(C)C)C(OC(=O)C2=C(c3ccccc3)C3=Cc4c(-c5ccccc5)c(C(=O)OC5C(C(C)(C)C)CC(C)CC5C(C)(C)C)c(NC(=O)c5cc(C(F)(F)F)cc(C(F)(F)F)c5)[n]4[Zn-]([OH])[N+]3=C2NC(=O)c2cc(C(F)(F)F)cc(C(F)(F)F)c2)C(C(C)(C)C)C1 (centres unmarked) [IIb-14] | A (Transmittance at 450 nm was 90% or more)
